Test results taken from paper PMC5560554, “Targeting of CDK9 with indirubin 3’-monoxime safely and durably reduces HIV viremia in chronically infected humanized mice” (PLoS ONE, 2017).
“And” between values parts separate entries of the source, which are not always exact repeats. Identical values can stand only once. Like-named read-outs stand apart in the source and are kept apart here.

Experiments:
[1] = test system: macrophages; details: cited from earlier work
[2] = test system: CDK9; parameters: method as in PMID 16284457; details: cited from earlier work
[3] = test system: HIV BaL; assay: Antiviral activity of IM during chronic HIV infection in HSC-NSG mice; assay type: in vivo
From the text: NSG mice were humanized at the age of 2–3 days, following whole body irradiation ([…]) and hepatic injection of 1.2x10^5 human cord blood-derived CD34+ cells (Lonza, Walkersville, MD). At week 12, mice were checked for human cell reconstitution by double staining with FITC-conjugated antihuman CD45 antibody (BD Pharmingen) and APC-conjugated antimouse CD45 antibody (BD Pharmingen). Mice were considered successfully transplanted if they had ≥ 5% of human CD45+ cells in peripheral blood. Successfully transplanted mice were infected, via i.p. injection, with 15,000 TCID50 units of the CCR5-tropic HIV reference strain BaL.
Plasma HIV RNA levels were quantified by an in-house real-time RT PCR using HIV Gag primers SK38/SK39 and SYBR green dyes, as in our previous studies. The assay has a sensitivity of 150 copies HIV RNA/40μL plasma. Percentages of human CD4+ and CD8+ T cells were determined by flow cytometry analysis using fluorochrome labeled antibodies against human CD4 (clone SK3), CD8 (SK1), CD3 (clone SK7), and CD45 (clone 2D1) (BD Biosciences). Data were acquired in a BD FACSCalibur flow cytometer and analyzed using FLowJo software (v. 9.7.7). CD4/CD8 ratios were calculated and plotted using GraphPad Prism 5.0 software.
We next evaluated the antiviral activity of IM in HSC-NSG mice chronically infected with HIV. For this, 12-week old HSC-NSG mice were infected with HIV BaL. Five weeks after infection, animals initiated daily i.p. treatment with IM (5 and 20 mg/kg/day) or vehicle control for 15 weeks. Each experimental and control group had 5 mice. Viral replication was monitored by measuring HIV RNA in plasma by RT-PCR. Blood CD4/CD8 ratios were measured by Flow Cytometry. Mice treated with 5 mg/kg dose had modest, but significant, declines in plasma HIV RNA during the 15-week treatment period (Fig 2a). By the end of the study, plasma HIV RNA levels were 2.1 log10 units lower in mice treated with 5 mg/kg IM compared to controls. The CD4/CD8 ratios increased to similar levels in IM (5 mg/kg) and control groups for most of the study duration.
Fig 2 IM reduces HIV viremia in HSC-NSG chronically infected with HIV. Twelve-week old HSC-NSG mice were infected with HIV BaL. Five weeks after infection, treatment was initiated at IM doses of 0 (vehicle alone) and 5 mg/kg/day. Each group had 5 mice. Treatment was continued for 15 weeks. Blood samples collected at the indicated time points were evaluated for plasma HIV RNA levels by quantitative RT-PCR (A), and for CD4/CD8 ratios by Flow Cytometry Analysis (B). At each time point, data were tested for statistical significant differences by Mann-Whitney U tests (GraphPad Prism Software, La Jolla, CA); P < 0.05 was considered significant. Shaded boxes indicate duration of treatment.

[4] = test system: HIV-1 NL4-3; assay: Drug susceptibility assay in PHA-activated PBMCs (HIV p24 ELISA day 7); assay type: cell-based; details: PBMCs, NL4-3, day 7
Description: The ARTs tenofovir, raltegravir and indinavir were obtained from the NIH AIDS Research and Reference Reagent Program (Gaithersburg, MD). Drug susceptibility assays were performed in PBMCs as previously. Briefly, donor PBMCs were activated by culture with phytohemagglutinin (PHA) for 3 days. Activated PBMCs were infected with HIV (M.O.I of 0.001) for 2 hours in the absence of IM or ARTs, washed to remove non-adsorbed virus, and plated in culture medium containing IL-2 and various dilutions of IM and ARTs alone and in combination. On day 3, fresh medium with fresh drug was added to the cultures. On day 7, cultures were evaluated for HIV production by measuring HIV p24 levels in the culture supernatants by ELISA (PerkinElmer Life Sciences, Inc., Boston, Massachusetts). Data were normalized to p24 levels in drug untreated controls (100%) and EC50 values determined by fitting the data to sigmoidal dose-response (variable slope) curves using GraphPad Prism 5.0 software.
A potential use of CDK9 inhibitor for the treatment of HIV will probably be in combination with ARTs from other classes. We thus evaluated the antiviral interaction between IM and ARTs from the NRTI, integrase and protease inhibitor classes in PBMCs infectivity assays in vitro. We used the virus strain HIV-1 NL4-3 to ensure a robust viral replication in the assays. Although HIV-1 NL4-3 differs from HIV-1 BaL in usage of coreceptor for cell entry, it is expected to have similar sensitivity to the tested ARTs. […] These enhancements of ART potencies by IM are consistent with targeting of different steps of the HIV cycle by IM and the tested ARTs.

[5] = test system: HIV; parameters: method as in PMID 16284457; details: macrophages; read-out: EC50 for inhibition of HIV in vitro; cited from earlier work
[6] = test system: primary lymphocytes; details: cited from earlier work
[7] = test system: HIV; parameters: method as in PMID 16284457; details: lymphocytes; read-out: EC50 for inhibition of HIV in vitro; cited from earlier work
[8] = HIV BaL, 20 mg/kg/day i.p., 5 weeks, limited data (S1 Fig)

In the case of `O=C1Nc2ccccc2/C1=C1/Nc2ccccc2/C1=N\O` [IM, Indirubin 3’-monoxime], the cytotoxicity [1] is given as “not cytotoxic”, the “inhibition of CDK9 relative to other CDKs” value [2] is given as “inhibits CDK9 more potently than other CDKs” and the “human T cells in blood” value ([3]; 20 mg/kg/day i.p., euthanized after 5 weeks of treatment) is given as “progressive losses in human T cells in blood”. The “CD4/CD8 ratios by the end of the study vs control” value ([3]; HIV BaL chronic infection, 5 mg/kg/day i.p. for 15 weeks) was “significantly higher”, the “plasma HIV RNA levels lower compared to controls by the end of the study” value ([3]; HIV BaL chronic infection, 5 mg/kg/day i.p. for 15 weeks, 5 mg/kg/day) was 2.1 log10 units and ~ 2 log10 units and the “increases in CD4/CD8 ratios” value [3, 8] was “no consistent inhibition of plasma HIV RNA or increases in CD4/CD8 ratios”. The “inhibition of plasma HIV RNA” value [3, 8] was “no consistent inhibition of plasma HIV RNA”, the P24 ([4]; IM alone (IND 0 nM), IND experiment, untreated control 55.00) was 4.00 ng/mL and the P24 ([4]; IM alone (RAL 0 nM), RAL experiment, untreated control 24.0) was 8.00 ng/mL. For the same compound, the P24 ([4]; IM alone (TDF 0 µM), TDF experiment, untreated control 50.0) was 10.0 ng/mL, the EC50 [5] was 500 nM and the cytotoxicity [6] was “not cytotoxic”. For the same compound, the EC50 [7] was 1000 nM.
